# Data reported in US4218453A, “N-Substituted hexahydro-6-canthinones for treating cardio-circulatory, cerebrovascular, and respiratory dysfunction” (priority 1976, dated 1980).
# How the values were obtained:
# [1] = Acute toxicity, intragastric route, mice (LD50, Lichtfield and Wilcoxon); details: mouse, in vivo, po
# Method: The compounds of the invention and vincamine also were administered by intragastric route to Charles River stock mice. The lethal doses for 50% (LD50) were determined graphically according to the method of Lichtfield and Wilcoxon (J. Pharmacol. Exp. Therap. […], 96, 99).
# [2] = system: Charles River stock mice; experiment: Hypobaric anoxia test on mice (survival time); format: in vivo; details: for activity relative to vincamine: comparison on the basis of fractions of LD50
# Method: Charles River stock mice of the same sex, weighting about 20±2 g are shared into three lots of 10 animals each. The lots 1 and 2 comprise treated animals, i.e. those having received either a substance to be tested or vincamine, together with solvent, at 1 ml/100 g of body weight. The third lot comprises control animals i.e. those having only received solvent at 1 ml/100 g of body weight.
# The compounds examined were administered by intragastric route 15 minutes before the experiment. The doses as applied correspond to 1/5, 1/10, 1/20 of the LD50 for the compounds of the invention and 1/5 of LD50 for vincamine.
# The animals were placed in an atmosphere impoverished in oxygen by creating a partial vacuum (190 mm Hg, corresponding to 5.25% oxygen), in about 30 seconds.
# The survival time of the mice was measured with a chronometer. Said time is increased by the agents capable of enhancing oxygenation of tissues and more particularly brain oxygenation.
# The percentages of survival time increase with respect to the values obtained for the control animals are calculated.
structure (smiles),measurement,setting,value
CN1CCc2c3n(c4ccccc24)C(=O)CCC31 (stereo not drawn) [OC-330],LD50,[1]; mice,310 mg/kg
same,Variation % (survival time increase vs control),"[2]; Table II, 1st experiment, 60 mg/kg or LD50/5, intragastric 15 min before",212%
same,Survival time,"[2]; Table II, 1st experiment, 60 mg/kg or LD50/5, intragastric 15 min before, control 39 (± 2)",122 (± 4) sec.
same,Variation % (survival time increase vs control),"[2]; Table II, 2nd experiment, 30 mg/kg or LD50/5 (so in the source)",71%
same,Survival time,"[2]; Table II, 2nd experiment, 30 mg/kg or LD50/5 (so in the source), control 39 (± 3)",67 (± 3) sec.
same,effect compared with vincamine at 1/5 LD50,[2]; at doses corresponding to 1/10 LD50 for mice (p.o.),exerts an effect whose intensity is comparable to vincamine at 1/5 LD50
same,activity relative to vincamine,[2],about two times more active than vincamine
"CCN1CCc2c3n(c4ccccc24)C(=O)CCC31 (stereo not drawn) [OC-331, 3-ethyl-1,2,3,3a,4,5-hexahydro-6-canthinone]",LD50,[1]; mice,411 mg/kg
same,Variation % (survival time increase vs control),"[2]; Table III, 1st experiment, 80 mg/kg or LD50/5",214%
same,Survival time,"[2]; Table III, 1st experiment, 80 mg/kg or LD50/5, control 39 (± 2)",122 (± 1) sec.
same,Variation % (survival time increase vs control),"[2]; Table III, 2nd experiment, 40 mg/kg or LD50/10",105%
same,Survival time,"[2]; Table III, 2nd experiment, 40 mg/kg or LD50/10, control 39 (± 1)",80 (± 3) sec.
same,Variation % (survival time increase vs control),"[2]; Table III, 3rd experiment, 20 mg/kg or LD50/20",75%
same,Survival time,"[2]; Table III, 3rd experiment, 20 mg/kg or LD50/20, control 39 (± 1)",57 (± 4) sec.
same,effect compared with vincamine at 1/5 LD50,[2]; at doses corresponding to 1/20 LD50 for mice (p.o.),exerts an effect comparable to vincamine at 1/5 LD50
same,activity relative to vincamine,[2],about four times more active than vincamine
CN1CCc2c3n(c4c(O)cccc24)C(=O)CCC31 (stereo not drawn) [OC-332],LD50,[1],527 mg/kg
same,Variation % (survival time increase vs control),"[2]; Table IV, 100 mg/kg or LD50/5",117%
same,Survival time,"[2]; Table IV, 100 mg/kg or LD50/5, control 35 (± 3)",76 (± 1) sec.
same,effect relative to vincamine,[2]; at equally toxic dose,about 1.5 times higher
"CC[C@]12CCCN3CCc4c(n(c5ccccc45)[C@@](O)(C(=O)OC)C1)[C@@H]32 [Vincamine, vincamine, reference compound]",LD50,[1]; mice,970 mg/kg
same,Variation % (survival time increase vs control),"[2]; Table II, 1st experiment, vincamine 200 mg/kg, LD50/5",67%
same,Survival time,"[2]; Table II, 1st experiment, vincamine 200 mg/kg, LD50/5, control 39 (± 2)",65 (± 1) sec.
same,Variation % (survival time increase vs control),"[2]; Table II, 2nd experiment, vincamine 200 mg/kg or LD50/5",67%
same,Survival time,"[2]; Table II, 2nd experiment, vincamine 200 mg/kg or LD50/5, control 39 (± 3)",65 (± 2) sec.
same,Variation % (survival time increase vs control),"[2]; Table III, 1st experiment, vincamine 200 mg/kg or LD50/5",67%
same,Survival time,"[2]; Table III, 1st experiment, vincamine 200 mg/kg or LD50/5, control 39 (± 2)",65 (± 3) sec.
same,Variation % (survival time increase vs control),"[2]; Table III, 2nd experiment, vincamine 200 mg/kg or LD50/5",67%
same,Survival time,"[2]; Table III, 2nd experiment, vincamine 200 mg/kg or LD50/5, control 39 (± 1)",65 (+ 1) sec.
same,Variation % (survival time increase vs control),"[2]; Table III, 3rd experiment, vincamine 200 mg/kg or LD50/5",59%
same,Survival time,"[2]; Table III, 3rd experiment, vincamine 200 mg/kg or LD50/5, control 39 (± 1)",52 (± 1) sec.
same,Variation % (survival time increase vs control),"[2]; Table IV, vincamine 200 mg/kg or LD50/5",77%
same,Survival time,"[2]; Table IV, vincamine 200 mg/kg or LD50/5, control 35 (± 3)",62 (± 4) sec.
